Data reported in patent publication EP4656642A1, “ESTROGEN RECEPTOR PROTEOLYSIS TARGETING CHIMERA COMPOUND AND USE THEREOF” (GAN & LEE PHARM CO., LTD, priority 2023, dated 2024).

Key:
Type in all cases: cell-based
[1] = tested on: T-47D cells; test: Inhibition of cell proliferation in T-47D cells (CCK-8, 6 days); conditions: 6 days of treatment, Table 3
In short: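 Viability read-out was CCK-8 after 6 days of compound treatment (37 °C, 5% CO2) across graded concentrations. Cells were T-47D seeded at 3,000 per well in 1640 medium plus 10% FBS. IC50 was calculated against proliferation.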

[2] = tested on: MCF-7 cells; test: Inhibition of cell proliferation of MCF-7 cells (CCK-8, 9 days); conditions: treated for 9 days, CCK-8 kit (Table 6)
In short: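 Read-out was CCK-8 viability after 9-day continuous exposure (37°C, 5% CO2) of MCF-7 cells plated at 800/well in 10% FBS DMEM across several compound concentrations. Values are proliferation IC50s.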

[3] = biological target: T1, ERα (Homo sapiens, UniProt P03372); test: Degradation of ERα in T-47D cells (immunoblotting, 4 h); parameters: host or cells: T-47D
T1 sequence (P03372 1-595): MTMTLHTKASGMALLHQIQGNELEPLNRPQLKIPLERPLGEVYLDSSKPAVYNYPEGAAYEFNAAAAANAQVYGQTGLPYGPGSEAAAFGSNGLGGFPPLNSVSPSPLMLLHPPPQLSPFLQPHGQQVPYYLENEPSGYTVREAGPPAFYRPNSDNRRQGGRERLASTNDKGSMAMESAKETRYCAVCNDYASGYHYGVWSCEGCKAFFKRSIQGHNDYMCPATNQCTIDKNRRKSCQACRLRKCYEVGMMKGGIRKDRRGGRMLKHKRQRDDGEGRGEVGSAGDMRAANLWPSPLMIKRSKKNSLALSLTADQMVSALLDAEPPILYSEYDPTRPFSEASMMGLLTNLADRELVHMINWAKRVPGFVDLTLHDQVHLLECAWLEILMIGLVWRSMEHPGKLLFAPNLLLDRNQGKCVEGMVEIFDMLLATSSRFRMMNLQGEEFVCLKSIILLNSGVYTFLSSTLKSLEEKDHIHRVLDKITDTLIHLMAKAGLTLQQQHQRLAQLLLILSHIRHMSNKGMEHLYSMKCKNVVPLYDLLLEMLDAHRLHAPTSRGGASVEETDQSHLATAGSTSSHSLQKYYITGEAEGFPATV
In short: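 ERα protein levels were assessed by immunoblot of RIPA lysates (with protease inhibitor) after 4 h exposure at 37°C. Compound was added in DMSO to T-47D cells at final concentrations of 0.15-1000 nM.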

[4] = biological target: T1, ERα; test: Degradation of ERα in MCF-7 cells (immunoblotting, 4 h)
In short: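 Degradation rate reflects ERα band intensity, corrected to an internal reference protein, relative to control. Values come from Western blotting of lysates from MCF-7 cells exposed 4 h at 37°C to compounds at final concentrations of 0.15-1000nM.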

| Compound | IC50 [1] [nM] | IC50 [2] [nM] | Degradation rate (%) of ERα in T-47D cells ([3]; 1nM compound) [%] | Degradation rate (%) of ERα in T-47D cells ([3]; 10nM compound) [%] | Degradation rate (%) of ERα in MCF-7 cells ([4]; 1nM compound) [%] | Degradation rate (%) of ERα in MCF-7 cells ([4]; 10nM compound) [%] |
| --- | --- | --- | --- | --- | --- | --- |
| O=C1CCC(N2Cc3c(ccc4c3OCC43CCN(C(=O)C4CCC(CN5CCC(C#Cc6ccc(C7c8ccc(O)cc8CCC7c7ccccc7)cc6)CC5)CC4)CC3)C2=O)C(=O)N1 (stereo not drawn) [C6] | 2.93 | 92.5 | 38 | 49 | 27 | 42 |
| O=C1CCC(N2Cc3cc4c(cc3C2=O)CCC2(CN(C(=O)[C@H]3CC[C@H](CN5CCN(c6ccc([C@@H]7c8ccc(O)cc8CC[C@@H]7c7ccccc7)cc6)CC5)CC3)C2)O4)C(=O)N1 (stereo partly drawn) [C7] | 1.75 | 84.7 | 45 | 74 | 38 | 63 |
| O=C1CCC(N2Cc3cc4c(cc3C2=O)OC2(CC4)CN(C(=O)[C@H]3CC[C@H](CN4CCN(c5ccc([C@@H]6c7ccc(O)cc7CC[C@@H]6c6ccccc6)cc5)CC4)CC3)C2)C(=O)N1 (stereo partly drawn) [C8] | 0.99 | 2730 | 60 | 78 | 29 | 40 |
| C[C@@H]1Cc2c(ccc3[nH]ncc23)[C@@H](c2c(F)cc(N3CCC4(CCN(CC(=O)N5CCC6(CC5)COc5c6ccc6c5CN(C5CCC(=O)NC5=O)C6=O)CC4)CC3)cc2F)N1CC(F)F (stereo partly drawn) [C10] | 0.5 | 54.8 | 65 | 80 | 53 | 65 |
| C[C@@H]1Cc2c(ccc3[nH]ncc23)[C@@H](c2c(F)cc(N3CCC4(CCN(CC(=O)N5CCC6(CC5)COc5c6ccc6c5CN(C5CCC(=O)NC5=O)C6=O)C4)CC3)cc2F)N1CC(F)F (stereo partly drawn) [C11] | 0.66 | 5970 | 56 | 68 | 60 | 69 |
| C[C@@H]1Cc2c(ccc3[nH]ncc23)[C@@H](c2c(F)cc(N3CCN(C[C@H]4CC[C@H](C(=O)N5CCC6(CC5)COc5c6ccc6c5CN(C5CCC(=O)NC5=O)C6=O)CC4)CC3)cc2F)N1CC(F)F (stereo partly drawn) [C12] | 37.4 | 180 | 27 | 47 | -34 | 22 |
| C[C@@H]1Cc2c(ccc3[nH]ncc23)[C@@H](c2c(F)cc(N3CCC4(CCN(C(=O)CN5CCC6(CC5)COc5c6ccc6c5CN(C5CCC(=O)NC5=O)C6=O)CC4)CC3)cc2F)N1CC(F)F (stereo partly drawn) [C13] | 0.61 | 3.24 | 46 | 70 | 41 | 62 |
| C[C@@H]1Cc2c(ccc3[nH]ncc23)[C@@H](c2c(F)cc(N3CCC4(CCN(C(=O)CN5CCC6(CC5)COc5c6ccc6c5CN(C5CCC(=O)NC5=O)C6=O)C4)CC3)cc2F)N1CC(F)F (stereo partly drawn) [C14] | 0.96 | 15 | 50 | 66 | 41 | 55 |
| CN(C(=O)CN1CCC2(CC1)COc1c2ccc2c1C(=O)N(C1CCC(=O)NC1=O)C2=O)C1CCC2(CC1)CCN(c1ccc([C@@H]3c4ccc(O)cc4CC[C@@H]3c3ccccc3)cc1)CC2 (stereo partly drawn) [C15] | 9.07 | 406 | 41 | 71 | 18 | 45 |
| CN(CC(=O)N1CC2(CCc3cc4c(cc3O2)C(=O)N(C2CCC(=O)NC2=O)C4)C1)C1CCC2(CC1)CN(c1ccc([C@@H]3c4ccc(O)cc4CC[C@@H]3c3ccccc3)cc1)C2 (stereo partly drawn) [C18] | 11.1 | 11400 | 24 | 50 | 10 | 29 |
| CN(CC(=O)N1CCC2(CC1)COc1c2ccc2c1C(=O)N(C1CCC(=O)NC1=O)C2=O)C1CCC2(CC1)CN(c1ccc([C@@H]3c4ccc(O)cc4CC[C@@H]3c3ccccc3)cc1)C2 (stereo partly drawn) [C19] | 14.7 | 23100 | 32 | 65 | 15 | 45 |
| O=C1CCC(N2Cc3c(ccc4c3OCC43CCN(C4CCC5(CC4)CCN(c4ccc(C6=C(c7ccc(Cl)cc7Cl)CCCc7cc(C(=O)O)ccc76)cc4)CC5)CC3)C2=O)C(=O)N1 (stereo not drawn) [F11] | 10.4 | 103 | 20 | 57 | 14 | 43 |
| O=C1CCC(N2Cc3c(ccc4c3OCC43CCN(C4CC5(C4)CC4(CCN(c6ccc([C@@H]7c8ccc(O)cc8CC[C@@H]7c7ccccc7)cc6)CC4)C5)CC3)C2=O)C(=O)N1 (stereo partly drawn) [G6] | 4.21 | 25400 | 33 | 71 | 8 | 46 |
| C[C@@H]1Cc2c(ccc3[nH]ncc23)C(c2c(F)cc(N3CC4(CCC(N5CCC6(CC5)COc5c6ccc6c5CN(C5CCC(=O)NC5=O)C6=O)CC4)C3)cc2F)N1CC(F)F (stereo partly drawn) [G21] | 25.1 | 8.6 | 34 | 63 | 45 | 57 |
| O=C1CCC(N2Cc3cc4c(cc3C2=O)OC2(CC4)CN(CC3CCN(c4ccc([C@@H]5c6ccc(O)cc6CC[C@@H]5c5ccccc5)cc4)CC3)C2)C(=O)N1 (stereo partly drawn) [H3] | 200 | 2410 | -43 | -56 | -20 | -37 |
| O=C1CCC(N2Cc3ccc4c(c3C2=O)OCC2(CCN(CC3CCN(c5ccc([C@@H]6c7ccc(O)cc7CC[C@@H]6c6ccccc6)cc5)CC3)CC2)C4)C(=O)N1 (stereo partly drawn) [H5] | 22.4 | 2260 | 18 | 12 | -3 | -12 |
| O=C1CCC(N2Cc3ccc4c(c3C2=O)OC2(CC4)CCN(CC3CCN(c4ccc([C@@H]5c6ccc(O)cc6CC[C@@H]5c5ccccc5)cc4)CC3)CC2)C(=O)N1 (stereo partly drawn) [H7] | 10.4 | 330 | -11 | -15 | 12 | -2 |
| O=C1CCC(N2Cc3c(ccc4c3OCC43CCN(CC4CCN(c5ccc([C@@H]6c7ccc(O)cc7CC[C@@H]6c6ccccc6)cc5)CC4)CC3)C2=O)C(=O)N1 (stereo partly drawn) [H8] | 31.9 | 27200 | -20 | -37 | -23 | -48 |
| O=C1CCC(N2Cc3c(ccc4c3OCC43CCN(C4CCN(C(=O)c5ccc([C@@H]6c7ccc(O)cc7CC[C@@H]6c6ccccc6)cc5)CC4)CC3)C2=O)C(=O)N1 (stereo partly drawn) [H9] | 594 | 5020 | -3 | -31 | -39 | -54 |
| O=C1CCC(N2Cc3cc4c(cc3C2=O)OC2(CC4)CN(C3CCN(C(=O)c4ccc([C@@H]5c6ccc(O)cc6CC[C@@H]5c5ccccc5)cc4)CC3)C2)C(=O)N1 (stereo partly drawn) [H11] | 124 | 24100 | -16 | 8 | -39 | -41 |
